Results as given in patent US10092537B2, “Use for PAI-1 inhibitor” (RENASCIENCE CO., LTD., priority 2013, dated 2018).

Tests used:
[1] = target: T1, human PAI-1 (Homo sapiens, UniProt P05121); assay: Measurement of PAI-1 inhibitory activity of compound group 3 (t-PA, S-2288 chromogenic substrate; Table 4)
Method: Subsequently, tissue plasminogen activator (t-PA) (manufactured by American Diagnostica, Inc. (USA); the same applies hereinafter) adjusted to 0.3 pmol/μL was added thereto, and further incubated at 37° C. for 15 minutes.

[2] = target: T1, human PAI-1; assay: Measurement of PAI-1 inhibitory activity of compound group 2 (t-PA, S-2288 chromogenic substrate); settings: PAI-1 activity of the system without compound after 30 minutes taken as 100%
Method: Subsequently, human-derived tissue plasminogen activator (t-PA) (manufactured by American Diagnostica, Inc. (USA); the same applies hereinafter) adjusted to 0.3 pmol/μL was added thereto, and the mixture was further incubated at 37° C. for 15 minutes.

[3] = target: T1, human PAI-1; assay: Measurement of PAI-1 inhibitory activity of compound group 1 (t-PA, Spectrozyme t-PA chromogenic substrate); settings: for activity at 2.5 µM / activity at 10 µM: read-out: PAI-1 activity %; for PAI-1 activity %: PAI-1 activity of the system without compound after 120 minutes taken as 100%
Method: Subsequently, human-derived tissue plasminogen activator (t-PA) (manufactured by American Diagnostica, Inc. (USA); the same applies hereinafter) adjusted to 0.05 pmol/μL was added thereto, and the mixture was further incubated at 37° C. for 60 minutes. Then, 0.25 mM of Spectrozyme t-PA synthetic substrate (manufactured by American Diagnostica, Inc. (USA); the same applies hereinafter), which is a chromogenic substrate, was added. The final mixture contained 50 mM Tris-HCl (pH 8), 150 mM NaCl, 1% DMSO, 0.1% PEG-6000, 0.2 mM CHAPS, 5 nM PAI-1, 2 nM t-PA, 0.2 mM Spectrozyme t-PA synthetic substrate, and each compound (10 μM or 2.5 μM).
Free radical p-nitroaniline removed from the chromogenic substrate (Spectrozyme t-PA) by t-PA action was measured using a spectrophotometer at an absorbance of 405 nm at 20-minute intervals, for 120 minutes.

[4] = target: T1, human PAI-1; assay: Measurement of PAI-1 inhibitory activity of compound group 1 (t-PA, S-2288 chromogenic substrate); settings: read-out: PAI-1 activity %
Method: Subsequently, human-derived tissue plasminogen activator (t-PA) (manufactured by American Diagnostica, Inc. (USA); the same applies hereinafter) adjusted to 0.35 pmol/μL was added thereto, and the mixture was further incubated at 37° C. for 15 minutes.

T1 sequence (P05121 24-402): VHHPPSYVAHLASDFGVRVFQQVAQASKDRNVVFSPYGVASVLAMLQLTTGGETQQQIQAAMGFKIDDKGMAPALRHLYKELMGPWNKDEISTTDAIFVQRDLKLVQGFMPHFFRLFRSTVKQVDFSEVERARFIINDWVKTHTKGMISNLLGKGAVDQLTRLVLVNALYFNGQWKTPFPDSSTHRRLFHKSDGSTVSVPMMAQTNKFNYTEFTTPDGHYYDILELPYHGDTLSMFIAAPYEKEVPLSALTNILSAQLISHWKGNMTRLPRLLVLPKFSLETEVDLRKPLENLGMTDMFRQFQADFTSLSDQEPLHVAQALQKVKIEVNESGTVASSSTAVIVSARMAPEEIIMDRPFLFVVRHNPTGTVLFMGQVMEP

Molecule	PAI-1 activity % ([1]; compound concentration 20 μM) [%]	PAI-1 activity % ([2]; compound 20 μM) [%]	PAI-1 activity % ([2]; compound 50 μM) [%]	activity at 2.5 µM [3] [%]	activity at 10 µM [3] [%]	activity at 20 µM [4] [%]	activity at 50 µM [4] [%]	PAI-1 activity % ([1]; compound concentration 50 μM) [%]	PAI-1 activity % ([2]; compound 100 μM) [%]	PAI-1 activity % ([3]; compound 2.5 μM) [%]	PAI-1 activity % ([3]; compound 10 μM) [%]
5-chloro-2-({[4-(diphenylmethyl)piperazin-1-yl]carbonyl}amino)benzoic acid hydrochloride [Example 75]	46.1	91.3	13.3								
5-chloro-2-({[4-(pyrrolidin-1-yl)phenyl]carbonyl}amino)benzoic acid hydrochloride [Example 83]		99.8	77.8								
Cc1sc(NC(=O)c2cccc(-c3ccoc3)c2)c(C(=O)O)c1-c1ccccc1 [Example 5, 2-({[3-(furan-3-yl)phenyl]carbonyl}amino)-5-methyl-4-phenylthiophene-3-carboxylic acid]				46.4	0.3	14.7	6.1				
O=C(Nc1ccc(Cl)cc1C(=O)O)c1ccc(-c2cccs2)cc1 [Example 7, 5-chloro-2-({[4-(thiophen-2-yl)phenyl]carbonyl}amino)benzoic acid]				99.8	0.4	54.2	7.4				
O=C(Nc1ccc(Cl)cc1C(=O)[O-])c1cccc(-c2ccncc2)c1.[Na+] [Example 8, sodium 5-chloro-2-({[3-(pyridin-4-yl)phenyl]carbonyl}amino)benzoate]	95.6		12.9	100	28.5			12.4	9.3		
O=C(O)c1cc(Cl)ccc1NC(=O)[C@@H]1CCCN1C(=O)c1cccc(-c2ccoc2)c1 [Example 10, 5-chloro-2-[(-{[3-(furan-3-yl)phenyl]carbonyl}-L-prolyl)amino]benzoic acid]						73	38.3				
O=C([O-])c1cc(Cl)ccc1NC(=O)C1CCCN(C(=O)c2cccc(-c3ccoc3)c2)C1.[Na+] (stereo not shown) [Example 11, sodium 5-chloro-2-{[(1-{[3-(furan-3-yl)phenyl]carbonyl}piperidin-3-yl)carbonyl]amino}benzoate]	64.7		99.3			68.2	26.1	11.5	20.7		
O=C(O)c1cc(Cl)ccc1NC(=O)C1CCCN(C(=O)Cc2cccc(-c3ccoc3)c2)C1 (stereo not shown) [Example 12, 5-chloro-2-{[(1-{[3-(furan-3-yl)phenyl]acetyl}piperidin-3-yl)carbonyl]amino}benzoic acid]						57.7	15.7				
Cn1cc(C(=O)C(=O)Nc2ccc(Cl)cc2C(=O)O)c2cc(-c3ccoc3)ccc21 [Example 14, 5-chloro-2-({[5-(furan-3-yl)-1-methyl-1H-indol-3-yl](oxo)acetyl}amino)benzoic acid]				87.4	4.3	22.1	12.9				
CC(C(=O)Nc1ccc(Cl)cc1C(=O)O)(c1ccccc1)c1ccccc1 [Example 39]	64.3							6.9	36.1	88.6	22.1
O=C(COc1cccc(-c2ccccc2)c1)Nc1ccc(-c2ccccc2)cc1C(=O)O [Example 45]	47.8	79.6	7.7					8.4		76.9	0.9
O=C(COc1ccc(-c2ccccc2)cc1)Nc1ccc(-c2ccoc2)cc1C(=O)O [Example 46]	83.9	85.4	8.4					47.3		69.9	0.4

The next lines start with results.

PAI-1 activity % ([1]; compound concentration 20 μM) [%]	PAI-1 activity % ([2]; compound 20 μM) [%]	PAI-1 activity % ([2]; compound 50 μM) [%]	activity at 2.5 µM [3] [%]	activity at 10 µM [3] [%]	activity at 20 µM [4] [%]	activity at 50 µM [4] [%]	PAI-1 activity % ([1]; compound concentration 50 μM) [%]	PAI-1 activity % ([2]; compound 100 μM) [%]	Molecule	PAI-1 activity % ([3]; compound 2.5 μM) [%]	PAI-1 activity % ([3]; compound 10 μM) [%]
64.3	78.2	21.4	21.3	0.3			10.6		O=C(Nc1ccc(Cl)cc1C(=O)[O-])c1cccc(-c2cnc3ccccc3c2)c1.[Na+] [Example 63, sodium 5-chloro-2-({[3-(quinolin-3-yl)phenyl]carbonyl}amino)benzoate]		
71.6	62.7	7.5	74.3	0.7			19.2		O=C(Nc1ccc(Cl)cc1C(=O)[O-])c1cccc(-c2cncc3ccccc23)c1.[Na+] [Example 64, sodium 5-chloro-2-({[3-(isoquinolin-4-yl)phenyl]carbonyl}amino)benzoate]		
86.0	76.9	10.8	71.7	0.4			25.4		O=C(Nc1ccc(Cl)cc1C(=O)[O-])c1cccc(-c2ccc3ncccc3c2)c1.[Na+] [Example 65, sodium 5-chloro-2-({[3-(quinolin-6-yl)phenyl]carbonyl}amino)benzoate]		
59.2	97.7	13.1	22.6	0.1			17.7		O=C(Nc1ccc(Cl)cc1C(=O)[O-])c1cccc(-c2cccc3cnccc23)c1.[Na+] [Example 66, sodium 5-chloro-2-({[3-(isoquinolin-5-yl)phenyl]carbonyl}amino)benzoate]		
57.6	99.8	75.0	90.4	0.6			8.1		O=C(Nc1ccc(Cl)cc1C(=O)[O-])c1ccc(-c2cccc3cccnc23)cc1.[Na+] [Example 67, sodium 5-chloro-2-({[4-(quinolin-8-yl)phenyl]carbonyl}amino)benzoate]		
20.7	99.8	66.3	2.4	2.1			9.4		O=C(Nc1ccc(Cl)cc1C(=O)[O-])c1cccc(-c2cccc3cccnc23)c1.[Na+] [Example 68, sodium 5-chloro-2-({[3-(quinolin-8-yl)phenyl]carbonyl}amino)benzoate]		
			100	12.7	44	11			CC(C)(C)c1ccc(C(=O)Nc2ccc(Cl)cc2C(=O)O)cc1 [Known compound (1), 2-{[(4-tert-butylphenyl)carbonyl]amino}-5-chlorobenzoic acid, reference compound]		
			70.7	0.2	41.8	8			O=C(Nc1ccc(Cl)cc1C(=O)O)c1ccc(-c2ccccc2)cc1 [Known compound (2), 2-[(biphenyl-4-ylcarbonyl)amino]-5-chlorobenzoic acid, reference compound]		
